In brackets after ≈: the same amount, converted by molar mass.
What was measured:
[1] = Antiproliferative activity against human YCC3/7 cells assessed as cell growth inhibition; type: functional, cell-based
[2] = biological target: Histone deacetylase 3 (Homo sapiens, UniProt O15379); test: Inhibition of recombinant human His-tagged HDAC3 expressed in baculovirus insect cells using Ac-Leu-Gly-Lys (Ac)-AMC as substrate preincubated for 5 mins followed by substrate addition and measured after 30 mins by fluorescence microtiter plate reader assay
[3] = Cytotoxicity against human Jurkat cells assessed as reduction in cell viability incubated for 72 hrs by CCK-8 assay
[4] = system: B16-F10; test: cells; type: functional, cell-based; conditions: Mus musculus, B16-F10, 48 h
Description: Antiproliferative activity against mouse B16-F10 cells assessed as inhibition of cell proliferation measured after 48 hrs by MTT assay

[5] = biological target: Histone deacetylase 1 (Homo sapiens, UniProt Q13547); test: Inhibition of recombinant human HDAC1 expressed in baculovirus expression system using Ac-Leu-Gly-Lys (Ac)-AMC as substrate preincubated for 5 mins followed by substrate addition and measured after 30 mins by fluorescence microtiter plate reader assay
[6] = system: MCF7; test: cells; type: functional, cell-based; conditions: Homo sapiens, MCF7, 48 h
Description: Antiproliferative activity against human MCF7 cells assessed as inhibition of cell proliferation measured after 48 hrs by MTT assay

[7] = Antiproliferative activity against human YCC-11 cells assessed as cell growth inhibition; type: functional, cell-based
[8] = system: B16-F10; test: Antitumor activity against mouse B16-F10 cells allografted in C57BL/6 mouse assessed as tumor growth inhibition at 50 mg/kg, ip administered daily for 14 days by caliper method (Rvb= 63%); type: functional; conditions: 336 h, time 14 day, read-out: TGI
[9] = biological target: T1, Histone deacetylase 8 (Homo sapiens, UniProt Q9BY41); test: Inhibition of full length recombinant human C-terminal His tagged HDAC8 expressed in baculovirus infected Sf9 insect cells using Ac-Leu-GlyLys (Tfa)-AMC as substrate preincubated for 5 mins followed by substrate addition and measured after 30 mins by fluorescence microtiter plate reader assay
T1 sequence (Q9BY41 whole entry): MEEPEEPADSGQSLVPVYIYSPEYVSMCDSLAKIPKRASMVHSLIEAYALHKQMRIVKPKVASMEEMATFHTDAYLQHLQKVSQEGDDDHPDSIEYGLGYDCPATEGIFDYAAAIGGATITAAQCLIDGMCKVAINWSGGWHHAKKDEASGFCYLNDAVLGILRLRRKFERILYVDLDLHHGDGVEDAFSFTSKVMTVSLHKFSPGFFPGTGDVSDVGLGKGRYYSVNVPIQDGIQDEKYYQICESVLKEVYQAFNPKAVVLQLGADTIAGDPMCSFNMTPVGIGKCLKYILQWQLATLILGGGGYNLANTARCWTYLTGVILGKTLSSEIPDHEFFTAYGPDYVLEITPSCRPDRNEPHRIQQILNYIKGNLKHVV

[10] = system: A549; test: cells; type: functional, cell-based; conditions: Homo sapiens, A549, 48 h
Description: Antiproliferative activity against human A549 cells assessed as inhibition of cell proliferation measured after 48 hrs by MTT assay

[11] = Aqueous solubility of the compound incubated for 24 hrs by HPLC based shake-flask method; type: physicochemical; conditions: buffer
[12] = system: HCT-116; test: cells; type: functional, cell-based; conditions: Homo sapiens, HCT-116, 48 h
Description: Antiproliferative activity against human HCT-116 cells assessed as inhibition of cell proliferation measured after 48 hrs by MTT assay

[13] = Toxicity in C57BL/6 mouse allografted with B16-F10 cells assessed as body weight loss at 50 mg/kg, ip administered daily for 14 days; type: organism-based; conditions: in vivo, 336 h, time 14 day
[14] = system: B16-F10; test: Antitumour activity against mouse B16-F10 cells allografted in C57BL/6 mouse model assessed as increase in acetylated alpha tubulin expression level in tumor at 50 mg/kg, ip measured after 14 days by […] based microscopic analysis (Rvb =1.77%); type: functional; conditions: time 14 day
[15] = system: B16-F10; test: Antitumour activity against mouse B16-F10 cells allografted in C57BL/6 mouse model assessed as increase in CD3 positive/CD4 positive cells in tumor at 10 mg/kg, ip administered for 14 days by flow cytometry analysis (Rvb= 8.73%); type: functional; conditions: time 14 day
[16] = system: B16-F10; test: Potentiation of antitumor activity against mouse B16-F10 cells allografted in C57BL/6 mouse model assessed as decrease in PD-L1 expression level in presence of 2-(5-chloro-2-(3-cyanobenzyloxy)-4-((2-methylbiphenyl-3-yl)methoxy)benzylamino)-2-methylpropanoic acid by Western blot analysis relative to control; type: functional; set-up: scale not given: the % may be the effect or the level left
[17] = Toxicity in C57BL/6 mouse allografted with B16-F10 cells assessed as body weight loss at 10 mg/kg, ip administered daily for 14 days; type: organism-based; conditions: in vivo, 336 h, time 14 day
[18] = system: B16-F10; test: Antitumour activity against mouse B16-F10 cells allografted in C57BL/6 mouse model assessed as increase in CD3 positive/CD8 positive cells in tumor at 10 mg/kg, ip administered for 14 days by flow cytometry analysis (Rvb= 6.65%); type: functional; conditions: time 14 day
[19] = system: B16-F10; test: Antitumour activity against mouse B16-F10 cells allografted in C57BL/6 mouse model assessed as decrease in PD-L1 expression level by Western blot analysis relative to control; type: functional; set-up: scale not given: the % may be the effect or the level left

Sequence of Histone deacetylase 3 (O15379 whole entry): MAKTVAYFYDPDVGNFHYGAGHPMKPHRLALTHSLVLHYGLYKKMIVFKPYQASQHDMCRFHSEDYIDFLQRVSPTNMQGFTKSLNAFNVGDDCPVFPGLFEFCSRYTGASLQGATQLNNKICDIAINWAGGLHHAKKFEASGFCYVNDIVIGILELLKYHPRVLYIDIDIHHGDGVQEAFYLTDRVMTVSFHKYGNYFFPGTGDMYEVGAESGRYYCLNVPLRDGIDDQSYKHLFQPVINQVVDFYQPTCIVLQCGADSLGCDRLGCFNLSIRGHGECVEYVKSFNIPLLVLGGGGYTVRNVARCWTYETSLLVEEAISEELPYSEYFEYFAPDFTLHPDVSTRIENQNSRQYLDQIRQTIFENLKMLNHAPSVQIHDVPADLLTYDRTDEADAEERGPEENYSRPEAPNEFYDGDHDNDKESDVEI
Sequence of Histone deacetylase 1 (Q13547 whole entry): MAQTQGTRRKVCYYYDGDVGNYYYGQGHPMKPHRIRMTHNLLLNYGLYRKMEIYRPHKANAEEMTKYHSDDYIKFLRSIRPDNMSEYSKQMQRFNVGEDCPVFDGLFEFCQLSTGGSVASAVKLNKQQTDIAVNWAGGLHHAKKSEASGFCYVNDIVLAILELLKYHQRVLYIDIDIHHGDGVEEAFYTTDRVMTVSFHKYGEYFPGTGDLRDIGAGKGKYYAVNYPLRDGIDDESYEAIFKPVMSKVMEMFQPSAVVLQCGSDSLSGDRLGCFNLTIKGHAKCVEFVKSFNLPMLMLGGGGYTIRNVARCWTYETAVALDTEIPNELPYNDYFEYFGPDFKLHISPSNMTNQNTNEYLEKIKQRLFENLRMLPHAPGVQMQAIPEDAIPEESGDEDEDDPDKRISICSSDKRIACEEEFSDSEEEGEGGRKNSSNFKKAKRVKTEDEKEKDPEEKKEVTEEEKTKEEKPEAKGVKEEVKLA

`CC(C)(C)OC(=O)Nc1ccc(-c2cc(C(=O)NCCCCCCC(=O)NO)no2)cc1` gave an IC50 [1] of 6.25 µM, an IC50 [2] of 0.76 µM and an IC50 at 72 h [3] of 0.61 µM. The IC50 [4] was 9.41 µM, the IC50 [5] was 0.26 µM and the IC50 [6] was 2.82 µM. It also gave an IC50 [7] of 4.08 µM, an inhibition in vivo at 50 mg/kg [8] of 52% and an IC50 [9] of 6.21 µM. For the same compound, the IC50 [10] was over 10 µM, the solubility thermodynamic at 24 h [11] was 16.1 µg/mL (≈ 36 µM) and the IC50 [12] was 1.47 µM. For the same compound, the Activity [13] was “Non-Toxic” and the Activity [14] was 37.9%.

In the case of `Cc1c(COc2cc(OCc3cccc(C#N)c3)c(CNC(C)(C)C(=O)O)cc2Cl)cccc1-c1ccccc1`, the Activity [15] is reported as 15.4%, the Activity [16] is reported as 70% and the Activity [17] is reported as “Non-Toxic”. It also gave an Activity [18] of 11.2% and an Activity [19] of 45%.
